Results reported in patent publication US8895499B2, “β-hairpin peptidomimetics” (Polyphor AG, priority 2010, dated 2014).
Peptide text beside a SMILES is read from it.

Assays:
Shigella boydii DSM 7532 = conditions: Mueller-Hinton II broth + 0.02% BSA, 18-20 hours at 37° C.
Experimental: […] colony forming units (CFU)/mL. Aliquots (50 μl) of inoculate were added to 50 μl of MH broth+0.02% BSA containing the peptide in serial two-fold dilutions. The following microorganisms were used to determine antibiotic selectivity of the peptides: Bacillus subtilis DSM 10 and Shigella boydii DSM 7532.

in vitro = assay type: cell-based
Experimental: The cytotoxicity of the peptides to HELA cells (Acc57) and COS-7 cells (CRL-1651) was determined using the MTT reduction assay (T. Mossman, J. Immunol. Meth. 1983, 65, 55-63; M. V. Berridge, A. S. Tan, Arch. Biochem. Biophys. 1993, 303, 474-482). Briefly, the method was as follows: 4000 HELA cells/well and 3400 COS-7 cells/well were seeded and grown in 96-well microtiter plates for 24 h at 37° C. at 5% CO2. Thereafter, time zero (Tz) was determined by MTT reduction (see below). The supernatant of the remaining wells was discarded, and fresh medium and compounds in serial dilutions (12.5, 25 and 50 μg/mL, triplicates) were pipetted into the wells. After incubation of the cells for 48 h at 37° C. at 5% CO2 the supernatant was discarded again and 100 μL MTT reagent (0.5 mg/mL in RPMI1640 and DMEM, respectively)/well was added. Following incubation at 37° C. for 2-4 h the media were aspirated and the cells were spiked (100 μL isopropanol/well). The absorbance of the solubilized formazan was measured at 595 nm (OD595peptide). For each concentration averages were calculated from triplicates. The percentage of growth was calculated as follows: (OD595peptide-OD595Tz-OD595Empty well)/(OD595Tz-OD595Empty well)×100%. The GI50 (Growth Inhibition) concentrations were calculated for each peptide by using a trend line function for the concentrations (50, 25, 12.5 and 0 μg/mL), the corresponding percentages and the value 50, (=TREND (C50:C0%50:%0,50).

[1] = system: human red blood cells (hRBC); assay type: cell-based; conditions: red cells of human, 1 h
Experimental: The peptides were tested for their hemolytic activity against human red blood cells (hRBC). Fresh hRBC were washed three times with phosphate buffered saline (PBS) and centrifuged for 10 min at 2000×g. Compounds (100 μg/mL) were incubated with 20% hRBC (v/v) for 1 h at 37° C. and shaking at 300 rpm. The final erythrocyte concentration was approximately 0.9×10^9 cells/mL. A value of 0% and 100% cell lyses, respectively, was determined by incubation of hRBC in the presence of PBS containing 0.001% acetic acid and 2.5% Triton X-100 in H2O, respectively. The samples were centrifuged, the supernatants were 8-fold diluted in PBS buffer and the optical densities (OD) were measured at 540 nm. The 100% lyses value (OD540H2O) gave an OD50 of approximately 0.5-1.0.
Percent hemolysis was calculated as follows: (OD540peptide/OD540H2O)×100%.

SMILES: CC[C@H](C)[C@@H]1NC(=O)[C@H](CCN)NC(=O)[C@H](Cc2c[nH]c3ccccc23)NC(=O)[C@@H]2CCCN2C(=O)[C@H]2CCCN2C(=O)[C@H](C)NC(=O)[C@H](CCC(N)=O)NC(=O)[C@H](CC(C)C)NC(=O)[C@H](CCCNC(=N)N)NC(=O)[C@H](CCC(N)=O)NC(=O)[C@H](CC(N)=O)NC(=O)[C@@H](CCCNC(=N)N)NC(=O)[C@H]([C@@H](C)CC)NC(=O)[C@H](CCCNC(=N)N)NC1=O [Example 5] (HELM PEPTIDE1{W.[Dab].I.R.I.[dR].N.Q.R.L.Q.A.[dP].P}$PEPTIDE1,PEPTIDE1,1:R1-14:R2$$$V2.0)
- Shigella boydii DSM 7532 MIC (Shigella boydii DSM 7532): 16 µg/mL
- GI50 at 48 h (in vitro; African green monkey): > 50 µg/mL
- GI50 at 48 h (in vitro; human): > 50 µg/mL
- Hemolysis at 100 μg/mL [1]: 0.0%

SMILES: CC[C@H](C)[C@@H]1NC(=O)[C@H](CCCNC(=N)N)NC(=O)[C@H](Cc2c[nH]c3ccccc23)NC(=O)[C@@H]2CCCN2C(=O)[C@H]2CCCN2C(=O)[C@H](C)NC(=O)[C@H](CCC(N)=O)NC(=O)[C@H](CC(C)C)NC(=O)[C@H](CCCNC(=N)N)NC(=O)[C@H](CCC(N)=O)NC(=O)[C@H](CC(N)=O)NC(=O)[C@@H](CCCNC(=N)N)NC(=O)[C@H]([C@@H](C)CC)NC(=O)[C@H](CCCN)NC1=O [Example 8] (HELM PEPTIDE1{W.R.I.[Orn].I.[dR].N.Q.R.L.Q.A.[dP].P}$PEPTIDE1,PEPTIDE1,1:R1-14:R2$$$V2.0)
- Shigella boydii DSM 7532 MIC (Shigella boydii DSM 7532): 16 µg/mL
- GI50 at 48 h (in vitro; African green monkey): > 50 µg/mL
- GI50 at 48 h (in vitro; human): > 50 µg/mL
- Hemolysis at 100 μg/mL [1]: 0.0%

SMILES: CC[C@H](C)[C@@H]1NC(=O)[C@H](CCCN)NC(=O)[C@H](Cc2c[nH]c3ccccc23)NC(=O)[C@@H]2CCCN2C(=O)[C@H]2CCCN2C(=O)[C@H](C)NC(=O)[C@H](CCC(N)=O)NC(=O)[C@H](CC(C)C)NC(=O)[C@H](CCCNC(=N)N)NC(=O)[C@H](CCC(N)=O)NC(=O)[C@H](CC(N)=O)NC(=O)[C@@H](CCCNC(=N)N)NC(=O)[C@H]([C@@H](C)CC)NC(=O)[C@H](CCCNC(=N)N)NC1=O [Example 6] (HELM PEPTIDE1{W.[Orn].I.R.I.[dR].N.Q.R.L.Q.A.[dP].P}$PEPTIDE1,PEPTIDE1,1:R1-14:R2$$$V2.0)
- Shigella boydii DSM 7532 MIC (Shigella boydii DSM 7532): >16 µg/mL
- GI50 at 48 h (in vitro; African green monkey): > 50 µg/mL
- GI50 at 48 h (in vitro; human): > 50 µg/mL
- Hemolysis at 100 μg/mL [1]: 0.0%

SMILES: CC[C@H](C)[C@@H]1NC(=O)[C@H](CCCNC(=N)N)NC(=O)[C@H](Cc2c[nH]c3ccccc23)NC(=O)[C@@H]2CCCN2C(=O)[C@H]2CCCN2C(=O)[C@H](C)NC(=O)[C@H](CCC(N)=O)NC(=O)[C@H](CC(C)C)NC(=O)[C@H](CCCNC(=N)N)NC(=O)[C@H](CCC(N)=O)NC(=O)[C@H](CCC(N)=O)NC(=O)[C@@H](CCCNC(=N)N)NC(=O)[C@H]([C@@H](C)CC)NC(=O)[C@H](CCCNC(=N)N)NC1=O [Example 11] (HELM PEPTIDE1{W.R.I.R.I.[dR].Q.Q.R.L.Q.A.[dP].P}$PEPTIDE1,PEPTIDE1,1:R1-14:R2$$$V2.0)
- Shigella boydii DSM 7532 MIC (Shigella boydii DSM 7532): >16 µg/mL
- GI50 at 48 h (in vitro; African green monkey): > 50 µg/mL
- GI50 at 48 h (in vitro; human): > 50 µg/mL
- Hemolysis at 100 μg/mL [1]: 0.0%

SMILES: CC[C@H](C)[C@@H]1NC(=O)[C@H](CCCNC(=N)N)NC(=O)[C@H](Cc2c[nH]c3ccccc23)NC(=O)[C@@H]2CCCN2C(=O)[C@H]2CCCN2C(=O)[C@H](C)NC(=O)[C@H](CCCNC(=N)N)NC(=O)[C@H](CC(N)=O)NC(=O)[C@H](CCCNC(=N)N)NC(=O)[C@H](CCCCN)NC(=O)[C@H](CC(N)=O)NC(=O)[C@@H](CCCNC(=N)N)NC(=O)[C@H]([C@@H](C)CC)NC(=O)[C@H](CCCNC(=N)N)NC1=O [Example 3] (HELM PEPTIDE1{W.R.I.R.I.[dR].N.K.R.N.R.A.[dP].P}$PEPTIDE1,PEPTIDE1,1:R1-14:R2$$$V2.0)
- Shigella boydii DSM 7532 MIC (Shigella boydii DSM 7532): 16 µg/mL
- GI50 at 48 h (in vitro; African green monkey): > 50 µg/mL
- GI50 at 48 h (in vitro; human): > 50 µg/mL
- Hemolysis at 100 μg/mL [1]: 0.1%
